From patent US20240180998A1, “MULTILAYERED PATCH” (KØBENHAVNS UNIVERSITET, priority 2021, published 2024)
Converted amounts (≈) assume the structure as drawn.

Key:
[1] = Drug loading of freeze-dried foam (disintegration of foam discs and quantification); format: physicochemical; conditions: for Loading efficiency (%): mean ± standard deviation
Description: The samples were incubated for 3 h at 37° C. and aliquots of 100 μL were withdrawn from each of the diffusion cells at specific time points and replenished with 100 μL warm (37° C.) hHBSS. The exact peptide dose was determined by disintegrating a 10 mm foam disc of known weight in 1 mL water for at least 1 h at RT. All samples were centrifuged (10,000 rpm/9279×g, 10 min, 4° C.) and the concentration of desmopressin in the supernatant was determined by reversed phase high performance liquid chromatography with UV detection (RP-HPLC-UV). Discs (10 mm in diameter) of NFF multilayered DDS were fixed in Ussing chamber […] […] 2 mL warm (37° C.) hHBSS without BSA pH 6.8 was added to each side of the sample. The samples were incubated for 3 h at 37° C. and aliquots of 100 μL were withdrawn from each of the diffusion cells at specific time points and replenished with 100 μl warm (37° C.) hHBSS without BSA pH 6.8.

C. albicans = conditions: Huang et al., 2020; cited from earlier work
[2] = Huang et al., 2020, cited from earlier work
[3] = drug loaded in foam, desmopressin at theoretical loading 29.13 μg/mg

| Loading efficiency (%) [1, 3] | Loading efficiency (%) ([1]; desmopressin at theoretical loading 107.17 μg/mg) | specific loading of desmopressin ([1]; foam of NFF, discs of 10 mm) | Structure (SMILES) | minimal fungicidal concentration (MFC) (C. albicans) | minimal inhibitory concentration (MIC) (C. albicans) | Log P [2] | aqueous solubility ([2]; in water) |
| --- | --- | --- | --- | --- | --- | --- | --- |
| 110 ± 2% |  |  | Clc1ccccc1C(c1ccccc1)(c1ccccc1)n1ccnc1 [Clotrimazole] | 4 µg/mL (≈ 11.6 µM) | 1 µg/mL (≈ 2.9 µM) | 6.3 | 0.49 µg/mL (≈ 1.42 µM) |
| 97 ± 1% | 117 ± 1% | 28.2±0.2 μg per mg of foam | NC(=O)CC[C@@H]1NC(=O)[C@H](Cc2ccccc2)NC(=O)[C@H](Cc2ccc(O)cc2)NC(=O)CCSSC[C@@H](C(=O)N2CCC[C@H]2C(=O)N[C@H](CCCN=C(N)N)C(=O)NCC(N)=O)NC(=O)[C@H](CC(N)=O)NC1=O [Desmopressin] |  |  |  |  |
